Experimental data taken from patent US9476053B2, “Methods and compositions for inhibition of immune responses and autoimmunity” (Dynavax Technologies Corporation, priority 2007, dated 2016).
Where two headings read alike, the source gives them in different places.

Tests used:
[1] = tested on: plasmacytoid dendritic cells (PDCs); type: cell-based, human
[2] = tested on: IFN-α production in PDC cells; type: cell-based, human
PDC [3] = test: In vivo PDC sensitivity to glucocorticoid in 129 mice treated with DEX plus CpG plus IRS; design: species or system mouse; settings: DEX 1000 μg plus CpG 50 μg plus IRS 100 μg
Experimental: To investigate whether IRPs comprising an IRS restore in vivo PDC sensitivity to glucocorticoid in mice treated with CpG-TLR9 ligand, 129 mice were treated with the glucocorticoid Dexthametasone (DEX; 1000 μg) alone or DEX (1000 μg) plus a immunostimulatory sequence CpG-C ISS C274 (“ISS”; […]. Viability of the different cell type was evaluated as described in Example 9.
Cells were identified to be PDC by the surface presence of B220, CD11c, and PDCA1 marker. Myeloid dendritic cells were identified as to be CD11c positive and B220 negative. B-cells were identified as B220 positive cells and CD11c negative. Monocytes were identified as CD11b positive. Similar results were obtained using blood (data not shown). […] IRPs comprising an IRS restored in vivo PDC sensitivity to glucocorticoid in mice treated with CpG-TLR9 ligand.

PDC [4] = test: Glucocorticoid induced cell death in lupus prone (NZB×NZW)F1 mice treated with DEX plus IRS; type: in vivo, mouse; settings: DEX 500 μg plus IRS 100 μg, spleen
Experimental: Next, the ability of immunoregulatory sequences to restore responsiveness to glucocorticoid treatment in lupus prone mice (NZB×NZW)F1 was evaluated.
To test whether IRPs comprising an IRS restore sensitiveness to glucocorticoid induced cell death in autoimmune prone animals, Lupus prone mice (NZB×NZW)F1 mice treated with 500 μg of Dexthametasone (DEX) alone or DEX (500 μg) plus IRS (SEQ ID NO: 123) (100 μg) or DEX (500 μg) plus IRS (SEQ ID NO: 123) (100 μg) or DEX (500 μg) plus CTRL oligo (100 μg). Viability of the different cell type was evaluated as described in Example 9.
Cells were identified to be PDC by the surface presence of B220, CD11c, and PDCA1 marker. Myeloid dendritic cells were identified as to be CD11c positive and B220 negative. B-cells were identified as B220 positive cells and CD11c negative. Monocytes were identified as CD11b positive. […] IRS restored sensitiveness to glucocorticoid induced cell death in autoimmune prone animals.

[5] = tested on: cells infiltrating inflamed skin; test: Tape-stripping skin inflammation in 129 mice, gene expression of infiltrating cells by Taqman; type: in vivo, mouse; settings: IRS 100 μg s.c. or i.v. or locally
Experimental: PDC infiltrate the inflamed mouse skin. 129 mice were mechanical stripped 12 times with tape or left untreated as control. After 16 hr mice were euthanized and the skin was collected and digested for 1 hr with a solution containing Liberase 0.28 u/ml and the cellular content was analyzed by flow cytometry. A) depicts an example of the facs plot of plasmacytoid dendritic cells PDC were defined to be CD11c+, […]) Cells infiltrating the skin were stimulated in vitro with an immunostimulatory sequence […] ID NO:125), wherein upper case letters represent PS […] lower case letters represent PO linkages) (1 μM) and IFN-α was measured in the supernatant by ELISA. Cells infiltrating inflamed skin show an IFN-α inflammatory gene signature which is preventable by treatment with IRS. Skin of 129 mice was mechanical inflamed by tape stripping as described in FIG. 39. Mice were stripped only or stripped and treated with IRS (SEQ ID NO:123) (100 μg) either administered s.c. or i.v. or locally on the inflamed skin. A group of mice was left completely untreated to serve as controls. Skin was processed as described in FIG. 39 and RNA was extracted from the infiltrating cells using an RNA kit from Quiagen according to manufacture instruction. Gene expression of specific genes was measured by Taqman. […] IRS can target skin inflammation in vivo.

[6] = influenza virus and SEQ ID NO:123 compared to influenza virus alone, hydroxycortisone 1×10^−8 M
[7] = influenza virus, no hydroxycortisone present

5′-TGCTCCTGGAGGGGTTGT-3′ (chemistry not given here) [SEQ ID NO:123]
reduction in the amount of hydroxycortisone necessary to achieve 50% death of PDCs ([1]; HSV plus SEQ ID NO:123 versus HSV): 37 fold
reduction in the amount of hydroxycortisone necessary to achieve 50% death of PDCs ([1]; ISS plus SEQ ID NO:123 versus ISS): 23 fold
percent survival of PDCs compared to influenza virus alone ([1]; combination with influenza virus, hydroxycortisone 1×10^−6 M, 48H): statistically significant decrease
decrease in survival of PDC cells [1, 6]: 23%
reduction in the amount of hydroxycortisone necessary to achieve 50% death of PDCs ([1]; influenza virus plus SEQ ID NO:123 versus influenza virus): 204 fold
difference in PDC survival [1, 7]: no difference
IFN-α production inhibited [2, 6]: 92%
IFN-α inhibition [2, 7]: completely inhibited
in vivo PDC sensitivity to glucocorticoid in mice treated with CpG-TLR9 ligand (PDC [3]): restored
sensitiveness to glucocorticoid induced cell death in autoimmune prone animals (PDC [4]): restored
IFN-α inflammatory gene signature of cells infiltrating inflamed skin [5]: preventable
